The text below walks through data of patent US5723494A, “Derivatives of glutamic and aspartic acids, a method of preparing them, and their use as drugs for enhancing memory and learning” (priority 1993, dated 1998).

Usually IC50 stands for the concentration that inhibits the measured activity by half. A higher IC50 goes with lower potency. For orientation: ED50 means the dose at which the effect has come halfway, by size or by number of responders.

In one assay the target is excitor amino-acid receptors of cortical membranes ("forebrain") of rats. Description: Inhibition of the specific binding of [3H]-glutamate to rat forebrain membranes. As to conditions: rat forebrain membranes, 20 min, 37° C., pH 7.1. The source says:
6) Studies on binding to rat "forebrain" membranes
L-glutamate recognizes all three receptor subtypes indicated above, al though not selectively. It is therefore desirable to evaluate the capacity of each of the compounds of the invention to interact with the excitor amino-acid receptors of the CNS.
"Forebrain", that is, the cerebral cortex and the hippocampus, were selected as the receptor tissue and ^3 H-L-glutamate as the ligand for marking this heterogenous receptor population.
Rat cerebral tissue (forebrain without striated tissue) was therefore homogeneised cold in tris buffer at pH 7.4. After washing and centrifuging, the final pellet was resuspended in 50 volumes of tris HCl binding buffer at 7.1. 0.5 ml of receptor membrane thus obtained were then incubated, together with the radioactive tracer and the compounds under test, for 20 min at 37° C. The reaction was terminated by separating the bound radio-ligand from the free radio-ligand by filteration on glass-fibre filters which, after washing, were counted in a liquid scintillator (a β-counter) thus determining the radioactivity associated with the pellet. The specific binding was determined as the difference between the binding in the absence and in the presence of cold 3.6 mM L-glutamate.
`CC(C)(C)CCCNC(=O)[C@@H](N)CCC(=O)O` [Compound 7] yielded an IC50 of 194 µM.
The same measure, in the same setting: with `N[C@@H](CCC(=O)O)C(=O)NC12CC3CC(CC(C3)C1)C2` [Compound 14] the figure was 73.3 µM; with `N[C@@H](CCC(=O)O)C(=O)NC1C2CC3CC(C2)CC1C3` (some centres unmarked) [Compound 15], 132 µM.
The same measure, in the same setting: with `N[C@@H](CCC(=O)O)C(=O)N1CCC2(CCCC2)CC1` [Compound 30] the figure was 368 µM; with `CC1(C)CCC(NC(=O)CC[C@H](N)C(=O)O)CC1` [Compound 48, 1-(4,4-dimethylcyclohexyl)-L-glutamine], 70.7 µM.

System in the next assay: not listed separately
Put plainly: Antidepressant activity in the behavioural despair test in the mouse. As to conditions: 5 min, 1 mg/kg IP, 5 minutes, read-out: Decrease in immobility (as %) vs the controls. It counts as in vivo, mouse (male CD1). The source says:
5) Antidepressant activity in the "behavioural despair test" Another interesting aspect of the pharmacological activity of these products is the potent antidepressant activity which some of them display in an experimental model in the mouse, in which a state of depression is induced experimentally by the method of Porsolt et al. (Arch. Int. Pharmacodyn. 229, p. 327-336 (1977)). Male CDl mice which weighed about 20-25 g and had not fasted were used. The test consisted of inducing a state of depression in the animal which was subjected to forced swimming in a glass cylinder from which it could not escape. After a short period of vigorous activity the mouse adopted a characteristic posture of immobility which was easily identifiable; this immobility is reduced by antidepressant drugs. 1 l glass beakers, filled to 700 ml with water at a temperature of 25° C. were used for the test. The mice, 8 per group, were treated intraperitoneally with the drug under test, 30 minutes before the test. At time 0, each animal was immersed in a beaker and, after one minute during which all moved about swimming vigorously in order to escape, regardless of treatment, the observer, who was unaware of the treatment, assigned the following points: 0=animal immobile 1=minimum movement to remain afloat 2=vigorous swimming The greater the antidepressant activity of the drug, the more the animals will move about in order to try to escape from the water. The points were assigned every 15 sec for a total period of 5 min with a total of 20 observations. The antidepressant activity was determined with the use of various doses of the compound by the regression method as the ED50, that is, the dose in mg/kg of the compound which could antagonise the animal's immobility time by 50%.
In the case of `CC1(C)CCC(NC(=O)CC[C@H](N)C(=O)O)CC1` [Compound 48, 1-(4,4-dimethylcyclohexyl)-L-glutamine], the inhibition in vivo at 1 mg/kg is 0%.

Still in this assay, the particulars now being: 5 min, 3 mg/kg IP, 5 minutes, read-out: Decrease in immobility (as %) vs the controls.
Take `CC(C)(C)CCCNC(=O)[C@@H](N)CCC(=O)O` [Compound 7]: the inhibition in vivo at 3 mg/kg is 19%.
With `N[C@@H](CCC(=O)O)C(=O)NC12CC3CC(CC(C3)C1)C2` [Compound 14], the inhibition in vivo at 3 mg/kg stood at 0%.
On the same count and under the same terms, with `N[C@@H](CCC(=O)O)C(=O)NC1C2CC3CC(C2)CC1C3` (some centres unmarked) [Compound 15] the figure was 0%; with `N[C@@H](CCC(=O)O)C(=O)N1CCC2(CCCC2)CC1` [Compound 30], 0%.
The same measure, in the same setting: under `CC1(C)CCC(NC(=O)CC[C@H](N)C(=O)O)CC1` [Compound 48, 1-(4,4-dimethylcyclohexyl)-L-glutamine] stands 9%.

Still in this assay, the particulars now being: 5 min, 10 mg/kg IP, 5 minutes, read-out: Decrease in immobility (as %) vs the controls.
Regarding `CC(C)(C)CCCNC(=O)[C@@H](N)CCC(=O)O` [Compound 7], the inhibition in vivo at 10 mg/kg was 51%.
On the same count and under the same terms, with `N[C@@H](CCC(=O)O)C(=O)NC12CC3CC(CC(C3)C1)C2` [Compound 14] the figure was 0%; with `N[C@@H](CCC(=O)O)C(=O)NC1C2CC3CC(C2)CC1C3` (some centres unmarked) [Compound 15], 33%.
Same read-out and setting: under `N[C@@H](CCC(=O)O)C(=O)N1CCC2(CCCC2)CC1` [Compound 30] stands 25%.
Same read-out and setting: under `CC1(C)CCC(NC(=O)CC[C@H](N)C(=O)O)CC1` [Compound 48, 1-(4,4-dimethylcyclohexyl)-L-glutamine] stands 18%.

The assay is the same for the next values; noted with them: 5 min, 30 mg/kg IP, 5 minutes, read-out: Decrease in immobility (as %) vs the controls.
`CC(C)(C)CCCNC(=O)[C@@H](N)CCC(=O)O` [Compound 7]: the inhibition in vivo at 30 mg/kg was 67%.
Still for that read-out and setting: under `N[C@@H](CCC(=O)O)C(=O)NC12CC3CC(CC(C3)C1)C2` [Compound 14] stands 21%.
On to `N[C@@H](CCC(=O)O)C(=O)NC1C2CC3CC(C2)CC1C3` (some centres unmarked) [Compound 15], for which the inhibition in vivo at 30 mg/kg came out at 75%.
For the compound `N[C@@H](CCC(=O)O)C(=O)N1CCC2(CCCC2)CC1` [Compound 30], the inhibition in vivo at 30 mg/kg turned out to be 20%.
On the same count and under the same terms, under `CC1(C)CCC(NC(=O)CC[C@H](N)C(=O)O)CC1` [Compound 48, 1-(4,4-dimethylcyclohexyl)-L-glutamine] stands 38%.

Still in this assay, the particulars now being: IP.
Turning to `N[C@@H](CCC(=O)O)C(=O)NC12CC3CC(CC(C3)C1)C2` [Compound 14], the “ED50 (dose antagonising immobility time by 50%)” value is “Inactive”.
The same measure, in the same setting: with `N[C@@H](CCC(=O)O)C(=O)N1CCC2(CCCC2)CC1` [Compound 30] the entry was “Not Calculable”; with `CC1(C)CCC(NC(=O)CC[C@H](N)C(=O)O)CC1` [Compound 48, 1-(4,4-dimethylcyclohexyl)-L-glutamine], “Not Calculable”.

Still in this assay, the particulars now being: IP, read-out: ED50 (dose antagonising immobility time by 50%).
Regarding `CC(C)(C)CCCNC(=O)[C@@H](N)CCC(=O)O` [Compound 7], the ED50 is 12.3 mg/kg.
For the compound `N[C@@H](CCC(=O)O)C(=O)NC1C2CC3CC(C2)CC1C3` (some centres unmarked) [Compound 15], the ED50 is 15.4 mg/kg.

System in another assay: not listed separately
Description: Memory-enhancement activity in the passive avoidance test in the rat. It counts as in vivo, rat (male Wistar). To be noted: 96 h; 0.1 mg/kg IP, rat, retest on the 4th day, 6 treatments; read-out: % variation vs controls (FS) in step through latency. The method, then: 2) Memory-enhancement activity in the "passive avoidance" test in the rat
A "passive avoidance" model was used, which required a single "step-through" situation and a retest of the "retention memory" 72 h after the training.
Male Wistar rats which weighed about 200 g and had not fasted, were used. The test consisted of evaluating the degree of memory of an animal after it had been trained as follows.
The equipment used was a shuttle box modified thus: one compartment was lined with black card including the cover, and a 60 W lamp was disposed above the other, spaced from the grid floor by about 40 cm. The two compartments were divided by an automatic guillotine-like door. Each animal was placed in the compartment in the light with the guillotine-likedoor open. From this moment, the time taken by the rat to go into the compartment lined with black card (the dark compartment) (the step-throughlatency=STL) was measured. The animals which took more than 30 sec to go into the dark were discarded. Once they had gone into the dark, the door was lowered automatically and a=0.1 mA shock lasting 5 sec (a foot shock=FS) started. After 10 sec, the animal was removed from the shuttle box.
Upon completion, the animals were selected randomly in homogeneous groups and treated with the products.
The retest to determine memory was made after 72 hours. The products were administered chronically in the preselected manner twice per day and the last treatment 30 min before the retest (6 treatments altogether).
The memory-retention test (the retest) consisted of placing each animal, treated 30 min beforehand with a physiological solution or with the product, in the compartment which was not lined with black card for 30 sec.
The results are expressed as the percentage variation of the STL (in seconds) of the groups treated in comparison with the control group by means of this formula: [formula]
As for `CC1(C)CCC(NC(=O)CC[C@H](N)C(=O)O)CC1` [Compound 48, 1-(4,4-dimethylcyclohexyl)-L-glutamine], the change in vivo at 0.1 mg/kg is 6%.

Staying with this assay, now noted: 96 h; 1 mg/kg IP, rat, retest on the 4th day, 6 treatments; read-out: % variation vs controls (FS) in step through latency.
`CC1(C)CCC(NC(=O)CC[C@H](N)C(=O)O)CC1` [Compound 48, 1-(4,4-dimethylcyclohexyl)-L-glutamine]: the change in vivo at 1 mg/kg is 0%.

Staying with this assay, now noted: 96 h; 10 mg/kg IP, rat, retest on the 4th day, 6 treatments; read-out: % variation vs controls (FS) in step through latency.
With `CC1(C)CCC(NC(=O)CC[C@H](N)C(=O)O)CC1` [Compound 48, 1-(4,4-dimethylcyclohexyl)-L-glutamine], the change in vivo at 10 mg/kg was found to be 18%.
